Source: US11707442B2, “Antibacterial and antifungal compounds” (The General Hospital Corporation, priority 2015, dated 2023)
Where two headings read alike, the source gives them in different places.

Assays:
MRSA strain MW2 = test: Checkerboard assay (combination); type: cell-based, Staphylococcus aureus; details: for Fractional inhibitory concentration index (FICI): MRSA strain MW2, synergy FICI ≤ 0.5
Experimental: Checkerboard assay (e.g., antibiotic synergy test): The antimicrobial or antifungal activity of a combination of a compound of present application with other agents was determined through a checkerboard assay. The checkerboard method for determining synergy of synthetic retinoids with conventional antibiotics can be conducted, for example, as previously described (See, e.g., Rajamuthiah, R. et al. A defensin from the model beetle Tribolium castaneum acts synergistically with telavancin and daptomycin against multidrug resistant Staphylococcus aureus. PLoS ONE 10, e0128576 (2015)) The compounds whose combinations were being tested were arrayed in serial concentrations, vertically for one compound and horizontally for the other compound in the same 96 well microplate. 2-fold serial dilutions of each retinoid were combined with 2-fold serial dilutions of each conventional antibiotic, which created an 8×8 matrix in a 96-well microtiter plate. The rest of the procedure involving addition of pathogen and measurement of growth was carried out as described for measurement of MIC.
The Fractional Inhibitory Concentration (FIC) index for two compounds, A and B, is defined by the following equation: FIC=((A/MIC^A)+(B/MIC^B)). MIC^A and NIC^B are MICs of compound A or B respectively. (A) is the lowest concentration of compound A in combination with compound B that inhibits growth of a pathogen and (B) is the lowest concentration of compound B that inhibits growth of a pathogen.
Optical densities at 600 nm were measured after 18 h of incubation at 37° C. The results represent three independent experiments.

A. baumannii = test: MIC, broth microdilution; type: cell-based, Acinetobacter baumannii; details: Acinetobacter baumannii, ATCC17978; A. baumannii ATCC 17978; read-out: Minimum inhibitory concentration
In short: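 MIC by CLSI broth microdilution (M07-A8) in MH broth; E. aerogenes, K. pneumoniae and A. baumannii pre-grown in LB, E. faecium in BHI, at 37° C. Inoculum at initial OD600 0.03, incubated 18 hrs at 35° C., growth read as absorbance at 595 nm.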

[1] = system: Salmonella typhimurium strains TA 1535 and TA 1538; details: for genotoxic potential: Ames test, result in words
Experimental: The Ames test was conducted using histidine auxotroph Salmonella typhimurium strains TA 1535 and TA 1538. To test mutagenic potential of the synthetic retinoids themselves and their metabolic products, the assay was conducted both with and without rat liver S9 fraction (Moltox, Boone, N.C., USA). Briefly, 100 μl of bacterial overnight cultures was added into 500 μl of phosphate buffer containing a range of amounts of the retinoids dissolved in 10 μl DMSO and with or without 4% S9. After incubation at 37° C. for 1 h, the samples were added into 2 ml of soft agar including 0.5 mM of histidine/biotin, mixed, and poured onto minimal glucose agar plates. The plates were incubated at 37° C. for 48 h, and the revertant colonies were counted. 10 μl DMSO was used as a negative control. […] 5 μg/plate 2-aminoanthracene was used as a positive control for both strains in the metabolic activation system. The test was performed in triplicate.

[2] = system: S. aureus persister cells (stationary phase); test: Persister killing assay; type: cell-based, Staphylococcus aureus; details: for eradication of persisters formed by S. aureus strain VRS1 and 11 clinical S. aureus strains: 10×MIC, 4 h; for viability of MW2 persister cells, single agent: 4 μg/ml CD437 or CD1530 or 10 μg/ml gentamicin alone; for time to complete eradication of MW2 persisters, combination: 4 μg/ml retinoid plus 10 μg/ml gentamicin; for bactericidal concentration against MRSA persisters: MRSA MW2 persisters
Experimental: Persister killing assay. […] Persister cells of these 13 S. aureus strains were developed by growing cultures overnight to stationary phase at 37° C. at 225 rpm. The overnight cultures were washed three times with PBS and diluted to ˜10^7 CFU/ml with the same buffer, which is the same concentration as used in the killing kinetics assay described herein. 1 ml of the persister suspension containing appropriate concentrations of antibiotics was added to the wells of a 2 ml deep well assay block (Corning Costar 3960) and incubated at 37° C., with shaking at 225 rpm. At specific times, 50 μl samples were removed, serially diluted and spot-plated on TSA plates to enumerate the number of live cells. These experiments were conducted in triplicate.

[3] = in combination with Ciprofloxacin

Row | Compound | interaction with gentamicin (MRSA strain MW2; MRSA MW2, result in words) | Fractional inhibitory concentration index (FICI) (MRSA strain MW2; [3]) | Fractional inhibitory concentration index (FICI) (MRSA strain MW2; in combination with Defensin 1) | Fractional inhibitory concentration index (FICI) (MRSA strain MW2; in combination with Gentamicin) | Fractional inhibitory concentration index (FICI) (MRSA strain MW2; in combination with Rifampicin) | MIC (A. baumannii) [µg/mL] | genotoxic potential [1] | Number of revertants (T1535) ([1]; With S9, 5 μg/plate) | Number of revertants (T1538) ([1]; With S9, 5 μg/plate) | Number of revertants (T1535) ([1]; With S9, 25 μg/plate) | Number of revertants (T1538) ([1]; With S9, 25 μg/plate) | Number of revertants (T1535) ([1]; With S9, 100 μg/plate) | Number of revertants (T1538) ([1]; With S9, 100 μg/plate) | Number of revertants (T1535) ([1]; Without S9, 5 μg/plate) | Number of revertants (T1538) ([1]; Without S9, 5 μg/plate) | Number of revertants (T1535) ([1]; Without S9, 25 μg/plate) | Number of revertants (T1538) ([1]; Without S9, 25 μg/plate) | Number of revertants (T1535) ([1]; Without S9, 100 μg/plate) | Number of revertants (T1538) ([1]; Without S9, 100 μg/plate) | eradication of persisters formed by S. aureus strain VRS1 and 11 clinical S. aureus strains ([2]; result in words) | also measured
1 | O=C(O)/C=C/c1ccc(-c2ccc(O)c(C34CC5CC(CC(C5)C3)C4)c2)cc1 [Adarotene, (2E)-3-(4′-Hydroxy-3′-tricyclo[3.3.1.13,7]dec-1-yl[1,1′-biphenyl]-4-yl)-2-propenoic acid] | significant synergistic antimicrobial activity | 0.75 | 1 | 0.5 | 1 | > 64 | did not show significant genotoxic potential | 6 ± 2 | 8 ± 4 | 7 ± 3 | 8 ± 1 | 7 ± 1 | 7 ± 3 | 6 ± 1 | 6 ± 1 | 7 ± 3 | 4 ± 3 | 6 ± 2 | 5 ± 2 | not | Fractional inhibitory concentration index (FICI) (MRSA strain MW2; in combination with Vancomycin): 1.016; eradication of S. aureus strain MW2 persisters ([2]; 8×MIC, result in words): did not
2 | O=C(O)c1ccc2cc(-c3ccc(O)c(C45CC6CC(CC(C6)C4)C5)c3)ccc2c1 [CD437, 6-(4-hydroxy-3-tricyclo[3.3.1.13,7]dec-1-ylphenyl)-2-naphthalenecarboxylic acid] | significant synergistic antimicrobial activity | – | – | – | – | > 64 | did not show significant genotoxic potential | 6 ± 3 | 9 ± 3 | 8 ± 3 | 10 ± 2 | 8 ± 3 | 6 ± 1 | 6 ± 2 | 5 ± 2 | 5 ± 2 | 4 ± 1 | 8 ± 2 | 3 ± 3 | annihilated | interaction with defensin 1 (MRSA strain MW2; MRSA MW2, result in words): synergism; viability of MW2 persister cells, single agent [2]: did not significantly affect; time to complete eradication of MW2 persisters, combination [2]: ≤ 3 h; bactericidal concentration against MRSA persisters [2]: 8 µg/mL
3 | O=C(O)c1ccc(-c2ccc3cc(O)c(C45CC6CC(CC(C6)C4)C5)cc3c2)cc1 [CD1530, 4-(6-hydroxy-7-tricyclo[3.3.1.13,7]dec-1-yl-2-naphthalenyl)-benzoic acid] | significant synergistic antimicrobial activity | 0.75 | 1 | 0.5 | 0.75 | > 64 | did not show significant genotoxic potential | 7 ± 3 | 7 ± 3 | 7 ± 2 | 10 ± 4 | 8 ± 2 | 8 ± 2 | 7 ± 3 | 3 ± 3 | 7 ± 2 | 4 ± 2 | 8 ± 4 | 4 ± 2 | annihilated | Fractional inhibitory concentration index (FICI) (MRSA strain MW2; in combination with Vancomycin): 1; viability of MW2 persister cells, single agent [2]: did not significantly affect; time to complete eradication of MW2 persisters, combination [2]: ≤ 4 h; bactericidal concentration against MRSA persisters [2]: 8 µg/mL
